Drawing on patent publication US8133898B2, “Renin inhibitors” (Takeda Pharmaceutical Company Limited, priority 2008, dated 2012), this text covers IC50 for 5 molecules.

Some results are limits rather than exact numbers.

Experiment [1] concerns the target Human DPP-IV (Homo sapiens, UniProt P27487). Nature of the experiment: in vitro enzymatic activity of inhibitors against DPP-IV. It counts as biochemical. The following applies: AP-AFC substrate. Here is the method:
Solutions of test compounds in varying concentrations ([…]) were prepared in dimethyl sulfoxide (DMSO) and then diluted into assay buffer comprising: 20 mM Tris, pH 7.4; 20 mM KCl; and 0.1 mg/mL BSA. Human DPP-IV (0.1 nM final concentration) was added to the dilutions and pre-incubated for 10 minutes at ambient temperature before the reaction was initiated with A-P-7-amido-4-trifluoromethylcoumarin (AP-AFC; 10 μM final concentration). The total volume of the reaction mixture was 10-100 μL depending on assay formats used (384 or 96 well plates). The reaction was followed kinetically (excitation λ=400 nm; emission λ=505 nm) for 5-10 minutes or an end-point was measured after 10 minutes. Inhibition constants (IC50) were calculated from the enzyme progress curves using standard mathematical models.

Experiment [2] has as its target T1, Recombinant human renin (Homo sapiens, UniProt P00797).
T1 construct: with trypsin, and isolate the active form (residues 67-406); made in house; host or cells: FreeStyle 293-F cells (transient expression of pcDNA3.1(+)/hREN)
T1 sequence (P00797 67-406): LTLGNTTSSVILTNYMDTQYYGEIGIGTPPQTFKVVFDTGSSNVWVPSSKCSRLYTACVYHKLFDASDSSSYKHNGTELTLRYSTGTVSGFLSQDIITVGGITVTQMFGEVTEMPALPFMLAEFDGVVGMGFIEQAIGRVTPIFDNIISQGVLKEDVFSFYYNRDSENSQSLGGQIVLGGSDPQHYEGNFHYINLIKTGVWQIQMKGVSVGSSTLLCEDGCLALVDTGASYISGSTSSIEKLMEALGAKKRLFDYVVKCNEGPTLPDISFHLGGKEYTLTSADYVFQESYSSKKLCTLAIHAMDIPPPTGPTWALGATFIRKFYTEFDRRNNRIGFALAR
Nature of the experiment: in vitro enzymatic activity of renin inhibitors (fluorescence). The following applies: fluorogenic peptide substrate. The experiment is classed as biochemical. The text has this: Test compounds in varying concentrations may be reacted with recombinant human renin in the presence of substrate, e.g., QXL520-γ-Abu-Ile-His-Pro-Phe-His-Leu-Val-Ile-His-Thr-Lys (HiLyteFluo488)-Arg-OH (Anaspec, San Jose, Calif.). The reaction can be followed kinetically using fluorescence (excitation λ=485 nm; emission λ=538 nm). Inhibition constants (IC50) may be calculated by non-linear curve fitting of the compound concentrations and fluorescence intensities to the standard IC50 equation.
Solutions of test compounds in varying concentrations (≦2 mM final concentration) are prepared in dimethyl sulfoxide (DMSO) and then diluted into assay buffer comprising 50 mM Hepes, 1 mM EDTA, 1 mM DTT, 0.1 mg/ml BSA, 0.01% Brij35, pH 7.4. Alternatively, the assay can be performed with a high BSA concentration, wherein the buffer contains an additional 2% BSA.
Recombinant human renin (3 nM final concentration) is added to the dilutions and pre-incubated with the compounds for 10 minutes at 37° C. As described in Examples A-C above, human renin can be obtained by expressing preprorenin (residue 1-406) in mammalian cells, treating the prorenin (residues 24-406) contained in the culture supernatant with trypsin, and isolate the active form (residues 67-406). After pre-incubation, the reaction is initiated with 1 μM of substrate QXL520-γ-Abu-Ile-His-Pro-Phe-His-Leu-Val-Ile-His-Thr-Lys (HiLyteFluo488)-Arg-OH (Anaspec, San Jose, Calif.). The final DMSO in the assay is 5%. The total volume of the reaction mixture is 20 μL, which can be placed on Greiner 384-well small volume plates.
Renin activity may be determined via fluorescence (excitation λ=485 nm; emission λ=538 nm), e.g., on a Molecular Devices SPECTROmax GEMINI XPS. The fluorescence intensity is determined upon the addition of substrate and determined again after incubation at 37° C. for one hour. The fluorescence intensity of a blank (no inhibition) using vehicle alone is also determined. Renin activity is linearly proportional to the change in fluorescence observed (final—initial).
The percent inhibition of renin at a given compound concentration is defined as: 100%×[1−(Fcompound/Fblank)] where Fcompound is the observed fluorescence at a given concentration of test compound and Fblank is the observed fluorescence in the presence of vehicle alone.
The pIC50 value (negative log of the molar concentration of the compound that produces 50% inhibition) of a test compound is calculated by non-linear least squares curve fitting of the equation: Percent Inhibition=100%/(1+(10−pIC50/10 log [I])) to percent inhibition versus compound concentration. The 50% inhibitory concentration (IC50) of a test compound is calculated by raising 10 to the negative pIC50 (10-pIC50).

Chain of Human DPP-IV (P27487 whole entry): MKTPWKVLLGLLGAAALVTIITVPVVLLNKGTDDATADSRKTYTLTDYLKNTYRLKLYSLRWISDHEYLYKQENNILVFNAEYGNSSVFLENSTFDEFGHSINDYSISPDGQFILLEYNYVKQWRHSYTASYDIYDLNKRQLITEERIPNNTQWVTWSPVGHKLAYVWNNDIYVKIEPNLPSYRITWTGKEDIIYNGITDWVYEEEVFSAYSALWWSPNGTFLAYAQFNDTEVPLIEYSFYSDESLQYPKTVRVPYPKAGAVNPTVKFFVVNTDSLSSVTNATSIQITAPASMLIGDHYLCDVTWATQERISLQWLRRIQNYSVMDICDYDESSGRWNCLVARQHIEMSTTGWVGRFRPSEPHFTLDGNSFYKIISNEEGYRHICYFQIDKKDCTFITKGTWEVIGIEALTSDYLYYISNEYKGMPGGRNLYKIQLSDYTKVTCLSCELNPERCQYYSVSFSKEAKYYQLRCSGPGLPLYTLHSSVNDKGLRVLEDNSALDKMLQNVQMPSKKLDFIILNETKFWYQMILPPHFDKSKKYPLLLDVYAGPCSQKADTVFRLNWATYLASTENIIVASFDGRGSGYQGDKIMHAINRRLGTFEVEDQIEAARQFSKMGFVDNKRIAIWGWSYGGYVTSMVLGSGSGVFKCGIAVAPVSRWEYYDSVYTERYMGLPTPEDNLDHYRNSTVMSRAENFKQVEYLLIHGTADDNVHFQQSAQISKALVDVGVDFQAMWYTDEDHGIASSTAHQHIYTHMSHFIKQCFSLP

In general, IC50 refers to the concentration that inhibits the measured activity by half. In the case of `CCNCc1c(NCc2ccc3ccccc3c2)nc2c(c1-c1cc(OC)cc(OC)c1)c(=O)n(C)c(=O)n2C` [Compound 86, 5-(3,5-dimethoxyphenyl)-6-((ethylamino)methyl)-1,3-dimethyl-7-(naphthalen-2-ylmethylamino)pyrido[2,3-d]pyrimidine-2,4(1H,3H)-dione], the IC50 in experiment [1] is more than 100 µM; in experiment [2], 10 to 100 µM.
On the same counts, the results for `CCCOc1ccc(OCCC)c(CNc2nc3c(c(-c4ccc(Cl)cc4Cl)c2CN)c(=O)n(C)c(=O)n3C)c1` [Compound 84, 6-(aminomethyl)-5-(2,4-dichlorophenyl)-7-(2,5-dipropoxybenzylamino)-1,3-dimethylpyrido[2,3-d]pyrimidine-2,4(1H,3H)-dione] are 1 to 10 µM and more than 100 µM.
On the same counts, the results for `Cn1c(=O)c2c(-c3cccc4c3OC(C)(C)C4)c(CN)c(NCc3ccc4ccccc4c3)nc2n(C)c1=O` [Compound 59, 6-(Aminomethyl)-5-(2,2-dimethyl-2,3-dihydrobenzofuran-7-yl)-1,3-dimethyl-7-(naphthalen-2-ylmethylamino)pyrido[2,3-d]pyrimidine-2,4(1H,3H)-dione] are 10 to 100 µM and 1 to 10 µM.
As for `CC(C)COc1ccccc1-c1c(CN)c(NCc2ccc3ccccc3c2)nc2c1c(=O)n(C)c(=O)n2C` [Compound 77, 6-(aminomethyl)-5-(2-isobutoxyphenyl)-1,3-dimethyl-7-(naphthalen-2-ylmethylamino)pyrido[2,3-d]pyrimidine-2,4(1H,3H)-dione], the figures for the IC50 in experiment [1] and in experiment [2] were more than 100 µM and 1 to 10 µM, respectively.
For `COc1ccc(F)cc1-c1c(CN)c(NCCCc2ccccc2)nc2c1c(=O)n(C)c(=O)n2C` [Compound 75, 6-(aminomethyl)-5-(5-fluoro-2-methoxyphenyl)-1,3-dimethyl-7-(3-phenylpropylamino)pyrido[2,3-d]pyrimidine-2,4(1H,3H)-dione] the same measures were less than 1 µM and 1 to 10 µM.
